Measurements: US20130158059A1, “NILOTINIB SALTS AND CRYSTALLINE FORMS THEREOF” (TEVA PHARMACEUTICAL INDUSTRIES LTD., priority 2010, published 2013)
Where a name gives a salt, the structure may show the parent alone.

Experiments:
[1] = Polymorphic stability on exposure to ethanol or methanol vapors; assay type: physicochemical; details: exposed to ethanol or methanol vapors, about RT, about 1 hour to about 24 hours
Excerpt: As discussed above, Nilotinib HBr form XI has advantageous properties. In particular, the crystalline Nilotinib HBr form XI of the present invention is polymorphically stable. […] This stability is an advantage for the production, storage and processing of pharmaceuticals comprising Nilotinib HBr.

[2] = Thermal polymorphic stability (heating of the crystalline form); assay type: physicochemical; details: heated up to 200° C.
Excerpt: As discussed above, Nilotinib L-tartrate Form IV has advantageous properties.

Molecule	polymorphic stability (conversion to other forms of Nilotinib HBr) [1]	thermal polymorphic stability (conversion to other forms) [2]
Cc1cn(-c2cc(NC(=O)c3ccc(C)c(Nc4nccc(-c5cccnc5)n4)c3)cc(C(F)(F)F)c2)cn1 [Nilotinib HBr form XI, Nilotinib hydrobromide]	does not convert to other forms of Nilotinib HBr	
Nilotinib L-tartrate [Nilotinib L-tartrate Form IV]		does not convert to other forms
